The target of data set [1] is T1, hA1 (Homo sapiens, UniProt P30542).
T1 construct: made in house; host or cells: CHO cells, Semliki Forest virus expression system
T1 sequence (P30542 1-326): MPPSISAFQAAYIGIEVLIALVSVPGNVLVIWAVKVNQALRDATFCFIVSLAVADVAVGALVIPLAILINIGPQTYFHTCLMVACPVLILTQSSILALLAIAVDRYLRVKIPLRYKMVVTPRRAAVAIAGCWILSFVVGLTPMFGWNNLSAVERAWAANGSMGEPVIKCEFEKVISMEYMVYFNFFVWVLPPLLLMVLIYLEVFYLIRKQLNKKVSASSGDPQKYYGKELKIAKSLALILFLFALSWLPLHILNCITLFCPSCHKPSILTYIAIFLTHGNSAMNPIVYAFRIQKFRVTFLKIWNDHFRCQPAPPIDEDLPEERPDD
Briefly: Radioligand binding assay, human A1 receptor. Conditions: recombinant hA1.
Method: Recombinant adenosine A1 (human, hA1; rat rA1), A2A (human hA2A; rat rA2A), A2B (human hA2B), and A3 (human hA3, dog dA3) were expressed in chinese hamster ovary (CHO) cells using the semliki forest virus expression system. […] The pellet was re-suspended in homogenizing buffer, and subsequently re-centrifuged (same conditions). The pellet was re-suspended in buffer (10 mM Tris-Cl, EDTA 2 mM pH 7.4 and adenosine deaminase 0.5 U/ml), incubated at 37° C. for 15 min, then re-centrifuged. The resulting pellet was re-suspended in Tris 10 mM, EDTA 2 mM and 10% Sucrose. The concentration of protein was determined, and the membranes were aliquoted and stored at −80° C. until further use.
Non-specific binding was defined using xanthine amine congener or NECA. […] For both SPA and filtration plates, bound ligand was determined using a Packard Topcount scintillation counter.
The CPM value for each duplicate of a concentration of competing compound was averaged (y1) then the % specific binding calculated, (((y1—non-specific)/(total binding non-specific))×100). […]

The target in data set [2] is A2A receptors in the monkey (Saimiri sp., UniProt A0A2K6V039). Briefly: Radioligand binding assay, monkey A2A receptor (striatal tissue).
A2A receptors in the monkey, sequence (A0A2K6V039 entry or part of it): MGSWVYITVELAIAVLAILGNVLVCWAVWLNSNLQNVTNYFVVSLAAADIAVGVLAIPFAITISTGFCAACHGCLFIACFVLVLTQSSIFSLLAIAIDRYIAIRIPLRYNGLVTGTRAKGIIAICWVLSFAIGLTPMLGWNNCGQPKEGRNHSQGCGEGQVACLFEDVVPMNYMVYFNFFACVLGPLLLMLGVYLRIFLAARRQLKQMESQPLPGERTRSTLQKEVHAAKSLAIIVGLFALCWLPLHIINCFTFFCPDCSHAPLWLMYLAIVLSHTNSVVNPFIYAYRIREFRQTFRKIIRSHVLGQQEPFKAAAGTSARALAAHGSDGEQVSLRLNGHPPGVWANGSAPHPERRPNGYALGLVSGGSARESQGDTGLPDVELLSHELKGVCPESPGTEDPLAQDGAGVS
The subject of data set [3] is adenosine transporter. Briefly: Selectivity radioligand binding panel, adenosine transporter. As to conditions: at 10 μM. An excerpt:
See FIG. 22-25 for general procedures of binding assays. See FIG. 26-32 for experimental conditions of binding assays.
The specific ligand binding to the receptors is defined as the difference between the total binding and the nonspecific binding determined in the presence of an excess of unlabelled ligand.
Individual and mean values are presented in the results section. The IC50 values (concentration causing a half-maximal inhibition of control specific binding) and Hill coefficients (nH) were determined by non-linear regression analysis of the competition curves using Hill equation curve fitting.
The inhibition constants (Ki) were calculated from the Cheng Prusoff equation (Ki=IC50/(1+(L/KD)), where L=concentration of radioligand in the assay, and KD=affinity of the radioligand for the receptor).

Data set [4] has as its system phosphodiesterase (IV) enzyme. Nature of the data set: Enzyme assay panel, phosphodiesterase (IV). The data set is classed as biochemical. Conditions: at 10 μM. As to the method:
The IC50 values (concentration causing a half-maximal inhibition of control values), EC50 values (concentration causing a half-maximal stimulation of control values) and Hill coefficients (nH) were determined by non-linear regression analysis of the concentration-response curves using Hill equation curve fitting. See FIG. 33 for general procedures and FIG. 34-36 for experimental conditions for enzyme assays.
It was tested at several concentrations (for IC50 or EC50 value determination), and the data were compared with historical values determined at Cerep.

Data set [5] has as its target T2, human A1 receptor (Homo sapiens, UniProt P30542).
T2 sequence (P30542 1-326): T1 sequence (P30542 1-326)
Nature of the data set: NECA-stimulated Ca2+ flux in hA1-Gα16-CHO cells (FLIPR). The data set is classed as cell-based. As to the method:
The density of cells was sufficient to yield a confluent monolayer the next day. Hanks balanced salt solution, without phenol red, containing 20 mM HEPES (pH 7.3) and 2.5 mM probenecid (assay buffer) was prepared fresh for each experiment. […] The dye-loading buffer consisted of a final concentration of 2 μM Fluo-4-AM (dissolved in DMSO and pluronic acid) in assay buffer. […] Once dye-loaded, the cells were washed thoroughly on an Embla cell washer with the assay buffer to remove any unincorporated dye. Exactly 100 μl assay buffer was left in each well.
J. Pharm. […] The concentration of agonist that produced a half-maximal response is represented by the EC50 value, the logarithm of which yielded the pEC50 value.
A general note: Calcium assays in cells follow changes in intracellular calcium, usually with a dye or a luminescent sensor.

For data set [6], the system named is female Wistar rats. Nature of the data set: Swim stress test. As to conditions: 3, 10 and 30 mg/kg po; vs controls. The data set is classed as in vivo, rat. As to the method: The swim stress test relies on the principle that when placed in water, rodents after an initial period of vigorous activity, adopt a characteristic immobile posture making only the minimal movements necessary to stay afloat. A reduction in the time of immobility is considered indicative of potential antidepressant-like properties of a particular drug.
The tricyclic antidepressant desipramine was used as reference drug at 100 mg/kg po. Data are mean±SEM based on 8 animals per group.
The swim stress test relies on the principle that when placed in water, rodents after an initial period of vigorous activity adopt a characteristic immobile posture, making only the minimal movements necessary to stay afloat. A reduction in the time of immobility is considered indicative of potential antidepressant-like properties of a particular drug (Porsolt R D et al. Behavioural despair in rats: a new model sensitive to antidepressant treatments. Eur. J. Pharmacol. 1978; 47:379-391). […]
Naïve rats were individually forced to swim inside vertical plexiglass cylinders (height: 40 cm; diameter: 17.5 cm) containing 15 cm of water maintained at 23-24° C. […] They were replaced in the cylinders 24 h later and the total duration of immobility was measured during a 5-min test. […]
Data were analyzed using an unpaired Student's t-test. […]

Structures are written as SMILES. Entries after “also recorded” stand apart in the source; their conditions may differ. A value given as a limit tells only on which side of the number the result lay.

One molecule from patent US20090082341A1 (SYNOSIA THERAPEUTICS, priority 2007, published 2009) can be followed below.

By Ki is commonly meant the equilibrium dissociation constant of an inhibitor or competing ligand from its target. In the case of `COc1ccc(N2CCOCC2)c2sc(NC(=O)N3CCC(C)(O)CC3)nc12` [4-hydroxy-4-methyl-piperidine-1-carboxylic acid (4-methoxy-7-morpholin-4-yl-benzothiazol-2-yl)-amide], in data set [1], the inhibitory constant (Ki) worked out at 1330 ± 106 nM. For the same molecule, in data set [2], the “pKi, monkey A2A receptor” value came to 7.9. Moreover, the “displacement at the adenosine transporter” value in data set [3] came to 55%. Besides, in data set [4], the “inhibition of phosphodiesterase (IV) enzyme” value is 88%. Also, the “Hill slope, hA1 Ca2+ flux” value in data set [5] was determined as 0.7. The IC50 in data set [5] (read-out: pIC50, antagonism of NECA-stimulated Ca2+ flux, hA1 (converted)) was above 10000 nM. Further, the “mean total duration of immobility” value in data set [6] is “dose-dependent decrease; also recorded: significantly and dose-dependently decreased”.
